Measurements published in publication PMC3673949, “Small Molecule R1498 as a Well-Tolerated and Orally Active Kinase Inhibitor for Hepatocellular Carcinoma and Gastric Cancer Treatment via Targeting Angiogenesis and Mitosis Pathways” (PLoS ONE, 2013).
Like-named read-outs stand apart in the source and are kept apart here.

Legend:
[1] = test system: 402 kinases; test: KINOMEScan kinase affinity profiling; assay type: binding; settings: 1 µM, ATP around Km of each kinase; 359 wild-type kinases and 43 mutants
Method: The affinity of R1498 against 402 kinases was determined by KINOMEScan® (Ambit Biosciences, San Diego, CA) and data were presented as dissociation constant (Kd) values. The inhibition on kinase activity of Aurora kinases and VEGFR2 was further characterized by Z’-Lyte kinase activity assays under corresponding ATP concentrations.

[2] = test system: phospho-Aurora kinase A (T288); test: Immunofluorescence / western blot of Aurora A activity marker in SGC-7901; assay type: cell-based, human
Method: Cell lysate was prepared in RIPA buffer and quantified by the bicinchoninic acid (BCA) method (Pierce, Rockford, IL). Thirty micrograms of protein per sample was loaded onto a 4∼12% NuPAGE® Novex SDS gel (Invitrogen). The protein was transferred by an iBlot® dry blotting device (Invitrogen) onto nitrocellulose membranes. After blocking nonspecific binding with TBS/Tween20 (0.1%) (TBS/T) containing 5% non-fat milk for 1 h at room temperature, the membrane was incubated in phospho-Aurora A (Thr288) (C39D8) rabbit monoclonal antibody (Cell Signaling Technology, CST #3079, Beverly, MA) or phospho-Histone H3 (Ser10) rabbit polyclonal antibody (CST#9701) (1∶1000 in TBS/T containing 3% bovine serum albumin (BSA), and gently shaken at 4°C overnight. The membrane was washed with TBS/T three times to remove the unbound antibody, then incubated with the secondary antibody (HRP-conjugated goat anti-mouse IgG or goat anti-rabbit IgG, 1∶10000, KangChen Biotech, Shanghai, China) for 1 h at room temperature, respectively. Protein bands were visualized with an enhanced chemiluminescence (ECL) kit (Pierce, Rockford, IL). […]

[3] = test system: BEL-7402 cells; test: Cell cycle distribution by flow cytometry; assay type: cell-based, human; settings: BEL-7402, 10 µM
Method: (§1) DNA content was measured with a FACS-Calibur cytometer (Becton Dickinson, San Jose, CA) and cell cycle distribution was calculated as described previously.

[4] = test system: SGC-7901 cells; test: Cell cycle distribution by flow cytometry; assay type: cell-based, human; settings: SGC-7901, 10 µM
Method: as §1

[5] = test system: HUVEC (VEGF 165 stimulated); test: VEGF-induced HUVEC proliferation assay; assay type: cell-based; settings: Homo sapiens, 0.5% FBS with VEGF 165, 72 h
Method: Each cell line was seeded in a 96-well tissue culture plate (Corning, NY) at a predetermined density in 180 µL complete medium, attached overnight and treated by compound for another 72 h. Then the medium was discarded and replaced with 10% CCK-8 (Dojindo, Kumamoto, Japan) in complete medium, then incubated the plates for another 2 h. The OD450 was measured with SpectraMAX 190 spectrophotometer (MDS, Sunnyvale, CA). A background absorbance of ODblank was subtracted from all wells.
In VEGF-induced HUVEC proliferation assay, the HUVECs suspended in 170 µL EGM-2 with 0.5% FBS were seeded and incubated overnight. After the cells attached, 10 µL 1 µg/ml recombinant human VEGF 165 (R&D systems, Minneapolis, MN) was added to each well together with 20 µl compound solutions prepared in EGM-2 with 0.5% FBS. The CCK-8 assay as above was used for determination of cell viability.

[6] = test system: BEL-7402 xenograft; test: Xenograft efficacy study; assay type: in vivo, BALB/C nu/nu nude mice
Method: (§2) Tumor cells were inoculated into the right flank of BALB/C nu/nu female nude mice (5∼6 weeks, 16∼18 g, obtained from Sino-British SIPPR/BK Lab. Animal Ltd, Shanghai, China) at optimal density based on our in-house validation study. After the tumor was established and reached 100∼150 mm^3, the mice were randomized into ten mice per group and received treatment according to the schedule. The tumor growth was recorded three times a week with the measurement of length (L) and width (W) by caliper, and calculated as tumor volume (TV, mm^3) = 0.5*L*W*W (mm). […] The tumor regression of individual mouse was defined - the tumor volume at the end was less than the tumor volume when treatment was initiated.

[7] = test system: MGC-803 xenograft; test: Xenograft efficacy study; assay type: in vivo, BALB/C nu/nu nude mice; settings: MGC-803, 25 mg/kg twice a day per oral gavage
Method: as §2

[8] = test system: HGC-27 xenograft; test: Xenograft efficacy study; assay type: in vivo, BALB/C nu/nu nude mice; settings: HGC-27, 25 mg/kg twice a day per oral gavage
Method: as §2

[9] = Plasma and tumor exposure at steady state in xenograft-bearing mice; assay type: in vivo, nude mice; parameters: Tumor AUC @ SS: unit not given here; settings: for AUC: nude, mouse, po, read-out: Plasma AUC @ SS
Excerpt: Supplementary file pone.0065264.s004.doc: Table S3 ED60/90 estimation from the R1498 exposure at steady state in tumors. The exposure in plasma and tumor at steady state were plot against tumor growth inhibiton rate to estimate the ED60/E90 doses. (DOC) Click here for additional data file.

With `COc1ccc2c(c1)C(c1ccccc1Cl)=Nc1c(n[nH]c1C)N2` [R1498] the “number of kinases with inhibition rate over 80% out of 402 kinases” value [1] was 39, the “Aurora A T288 green foci in mitotic cells (immunofluorescence)” value ([2]; SGC-7901, 5 µM, 24 h) was “became weaker or disappeared” and the “phosphorylation of phospho-Aurora kinase A (T288) (western blot)” value ([2]; SGC-7901 synchronized with nocodazole, various concentrations, acute treatment) was “decreased in a concentration-dependent manner”. For the same compound, the “cells with >4N DNA content” value ([3]; control 6.7%) was 17.6%, the “cells in G2/M phases” value ([3]; control 25.6%) was 57.0% and the “cells with >4N DNA content (polyploid cells)” value ([4]; control 3.1%) was 21.6%. The “cells in G2/M phases” value ([4]; control 25.2%) was 75.5%, the IC50 [5] was 89 nM and the “Final TGI%” value ([6]; BEL-7402, 25 mg/kg twice a day per oral gavage, day of study termination) was 102%. The Body weight changes% ([6]; BEL-7402, 25 mg/kg twice a day per oral gavage, before vs after treatment) was 2%, the “Tumor Regression” value ([6]; BEL-7402, 25 mg/kg twice a day per oral gavage, mice with regression/group) was 8/10 and the “Final TGI%” value ([6]; BEL-7402, 3.125 mpk, bid, PO) was 56%. The “Final TGI%” value ([6]; BEL-7402, 6.25 mpk, bid, PO) was 69%, the “Final TGI%” value ([6]; BEL-7402, 12.5 mpk, bid, PO) was 90% and the “Final TGI%” value ([7]; day of study termination) was 99%. For the same compound, the Body weight changes% ([7]; before vs after treatment) was 14%, the “Tumor Regression” value ([7]; mice with regression/group) was 5/10 and the “Final TGI%” value ([8]; day of study termination) was 85%. For the same compound, the Body weight changes% ([8]; before vs after treatment) was 6%, the “Tumor Regression” value ([8]; mice with regression/group) was 0/10 and the “Tumor AUC @ SS” value ([9]; BEL-7402, 3.125 mpk, bid, PO) was 2219. For the same compound, the “Tumor AUC @ SS” value ([9]; BEL-7402, 6.25 mpk, bid, PO) was 6713, the “Tumor AUC @ SS” value ([9]; BEL-7402, 12.5 mpk, bid, PO) was 23886 and the “Tumor AUC @ SS” value ([9]; BEL-7404, 3.125 mpk, bid, PO) was 9251. For the same compound, the “Tumor AUC @ SS” value ([9]; BEL-7404, 6.25 mpk, bid, PO) was 17558, the “Tumor AUC @ SS” value ([9]; BEL-7404, 12.5 mpk, bid, PO) was 37142 and the “Tumor AUC @ SS” value ([9]; BEL-7404, 12.5 mpk, single dose, PO (PK arm)) was 30996. The “Tumor AUC @ SS” value ([9]; BGC-823 (model cell empty, from line above), 25 mpk, single dose, PO (PK arm)) was 49597, the “Tumor AUC @ SS” value ([9]; BGC-823, 6.25 mpk, bid, PO) was 9906 and the “Tumor AUC @ SS” value ([9]; BGC-823, 12.5 mpk, bid, PO) was 39971. The “Tumor AUC @ SS” value ([9]; BGC-823, 25 mpk, bid, PO) was 70897, the “Tumor AUC @ SS” value ([9]; SGC-7901 (model cell empty, from line above), 25 mpk, single dose, PO (PK arm)) was 147592 and the “Tumor AUC @ SS” value ([9]; SGC-7901, 6.25 mpk, bid, PO) was 25249. The “Tumor AUC @ SS” value ([9]; SGC-7901, 12.5 mpk, bid, PO) was 48130, the “Tumor AUC @ SS” value ([9]; SGC-7901, 25 mpk, bid, PO) was 78767 and the AUC ([9]; in vivo, 12.5 mg/kg, BEL-7402, 12.5 mpk, bid, PO) was 26100 ng·h/mL. The AUC ([9]; in vivo, 12.5 mg/kg, BEL-7404, 12.5 mpk, bid, PO) was 21600 ng·h/mL, the AUC ([9]; in vivo, 12.5 mg/kg, BEL-7404, 12.5 mpk, single dose, PO (PK arm)) was 15200 ng·h/mL and the AUC ([9]; in vivo, 12.5 mg/kg, BGC-823, 12.5 mpk, bid, PO) was 31100 ng·h/mL. The AUC ([9]; in vivo, 12.5 mg/kg, SGC-7901, 12.5 mpk, bid, PO) was 26900 ng·h/mL, the AUC ([9]; plasma, 3.125 mg/kg, BEL-7402, 3.125 mpk, bid, PO) was 5380 ng·h/mL and the AUC ([9]; plasma, 3.125 mg/kg, BEL-7404, 3.125 mpk, bid, PO) was 3560 ng·h/mL. It also gave an AUC ([9]; plasma, 6.25 mg/kg, BEL-7402, 6.25 mpk, bid, PO) of 12600 ng·h/mL, an AUC ([9]; plasma, 6.25 mg/kg, BEL-7404, 6.25 mpk, bid, PO) of 6560 ng·h/mL and an AUC ([9]; plasma, 6.25 mg/kg, BGC-823, 6.25 mpk, bid, PO) of 10800 ng·h/mL. It also gave an AUC ([9]; plasma, 6.25 mg/kg, SGC-7901, 6.25 mpk, bid, PO) of 11400 ng·h/mL, an AUC ([9]; plasma, 25 mg/kg, BGC-823 (model cell empty, from line above), 25 mpk, single dose, PO (PK arm)) of 73300 ng·h/mL and an AUC ([9]; plasma, 25 mg/kg, BGC-823, 25 mpk, bid, PO) of 43300 ng·h/mL. For the same compound, the AUC ([9]; plasma, 25 mg/kg, SGC-7901 (model cell empty, from line above), 25 mpk, single dose, PO (PK arm)) was 70100 ng·h/mL and the AUC ([9]; plasma, 25 mg/kg, SGC-7901, 25 mpk, bid, PO) was 47900 ng·h/mL.
